ChEMBL document CHEMBL2331257, “(M)- and (P)-bicelaphanol A, dimeric trinorditerpenes with promising neuroprotective activity from Celastrus orbiculatus” (2013)

Key:
Type in all cases: functional
[1] = tested on: PC-12; test: Neuroprotective activity against H2O2-induced toxicity in rat PC12 cells assessed as cell viability at 1 uM incubated for 2 hrs prior to H2O2-challenge measured after 24 hrs by MTT assay relative to control; details: for viability at 1 µM: Rattus norvegicus, PC-12, read-out: Activity
[2] = tested on: PC-12; test: Neuroprotective activity against H2O2-induced toxicity in rat PC12 cells assessed as cell viability at 10 uM incubated for 2 hrs prior to H2O2-challenge measured after 24 hrs by MTT assay relative to control; details: for viability at 10 µM: Rattus norvegicus, PC-12, read-out: Activity
[3] = tested on: PC-12; test: Neuroprotective activity against H2O2-induced toxicity in rat PC12 cells assessed as cell viability at 100 uM incubated for 2 hrs prior to H2O2-challenge measured after 24 hrs by MTT assay relative to control; details: read-out: Activity

In the case of `CC1(C)CCC[C@@]2(C)C1=C(O)C(=O)c1c2cc(O)c(O)c1C1=C2C=C(O)C(=O)C=C2[C@@]2(C)CCCC(C)(C)[C@@H]2C1=O` (stereo in doubt; 1), the Activity [1] was 81.3% and the Activity [2] was 102.7%.

`CC1(C)CCC[C@@]2(C)C1=C(O)C(=O)c1c2cc(O)c(O)c1C1=C2C=C(O)C(=O)C=C2[C@@]2(C)CCCC(C)(C)[C@@H]2C1=O` (stereo in doubt; 2) showed a viability at 1 µM [1] of 78.3% and a viability at 10 µM [2] of 91.6%.

For `CC(=O)N[C@@H](CS)C(=O)O` [ACETYLCYSTEINE], the viability at 100 µM [3] was 76.1%.

Molecule `CC1(C)CCC[C@@]2(C)C1=C(O)C(=O)c1cc(O)c(O)cc12` [CELAPHANOL A] has a viability at 1 µM [1] of 66.4% and a viability at 10 µM [2] of 76.9%.
